The record followed here is US20040142979A1, “Heteroarylsulfonylmethyl hydroxamic acids and amides and their use as protease inhibitors” (priority 2002, published 2004).

Type in all cases: biochemical
Assay [1] deals with T1, Human recombinant MMP-14 (Homo sapiens, UniProt P50281).
T1 construct: The catalytic domain enzyme was expressed in E. Coli inclusion bodies; made in house
Briefly: In vitro MMP inhibition analysis (fluorogenic peptide substrate), MMP-14. The note with it: human recombinant catalytic domain; 4 μM substrate (A); apparent Ki without substrate correction. As to the method: (§1) Several compounds and salts were analyzed in an in vitro assay to determine their ability to inhibit the MMP cleavage of peptide substrates. Inhibition constant (Ki) were calculated from the assayed compound-MMP interactions.
(§2) Human recombinant MMP-1, MMP-2, MMP-9, MMP-13, and MMP-14 were used in this assay. All enzymes were prepared in Assignee's laboratories following usual laboratory procedures. Protocols for the preparation and use of these enzymes are available in the scientific literature. See, e.g., Enzyme Nomenclature (Academic Press, San Diego, Calif., 1992) (and the citations therein). See also, Freije et al., J. Biol. Chem., 269(24), 16766-16773 (1994).
The MMP-14 full length cDNA was provided by Dr. Gregory Goldberg of Washington University (St. Louis, Mo.). The catalytic domain enzyme was expressed in E. Coli inclusion bodies, solubilized in urea, purified on a preparative […] reverse phase HPLC column, and then refolded in the presence of zinc acetate and purified for use.
(§3) All MMPs were activated using 4-aminophenylmercuric acetate (“APMA”, Sigma Chemical, St. Louis, Mo.) or trypsin. MMP-9 also was activated using human recombinant MMP-3 (purified in Assignee's laboratory following standard cloning and purification techniques).
(§4) The following fluorogenic, methoxycoumarin-containing polypeptide substrate (A) was used in the MMP inhibition assays:
(§5) MCA-ArgProLeuGlyLeuDpaAlaArgGluArgNH2 (A)
(§6) “MCA” is 7-methoxycoumarin-4-yl acetyl. Substrate (A) was prepared Assignee's laboratory. In the absence of MMP inhibitory activity, the substrate is cleaved at the Gly-Leu peptide bond. This cleavage separates the highly fluorogenic peptide from the 2,4-dinitrophenyl quencher, thus resulting in increase of fluorescent intensity.
(§7) The stock solutions of the assayed compounds and salts were prepared in 1% dimethyl sulfoxide (DMSO). These stock solutions were diluted in Buffer A (100 mM Tris-HCl, 100 mM NaCl, 10 mM CaCl2, 0.05% polyoxyethylene 23 lauryl ether, pH 7.5) to obtain solutions with different compound concentrations, i.e., assay solutions with different concentrations of the assayed MMP inhibitory compound. The experiment controls contained the same amount of Buffer A/DMSO as the assayed sample, but contained none of the tested compound or salt.
(§8) The assays from which the Ki determinations were made were performed as follows. The assayed compound samples were incubated in separate wells of untreated white polystyrene plates (Nunc Nalgene International, Rochester, N.Y.), and analyzed on a Tecan SpectraFlour Plus plate reader. The excitation wavelength was 330 nm, and the emission wavelength -420 nm. All samples (assayed compounds and controls) were incubated in separate plate wells at room temperature for 1 hr in the presence of 4 μM of MMP substrate (A). In the absence of MMP inhibitory activity, substrate (A) was cleaved at the Gly-Leu bond resulting in an increase of relative fluorescence. Inhibition was observed as a reduced rate of this increase in relative fluorescence. […] This protocol is a modification of method by Knight et al., FEBS Lett., 296(3), 263-266 (1992). Apparent inhibitory constants were determined by non-linear regression of reaction velocity as a function of inhibitor and enzyme concentration using Morrison's equation, as described by Kuzmic, P., et al., Anal. Biochem., 286(1):45-50 (2000). Modifications were made in the non-linear regression method to allow a common control reaction rate and effective enzyme concentration to be shared between all dose-response relationships on a given assay plate. Since the substrate concentration was chosen to be at or below the Km, the apparent Ki's from this analysis were reported as Ki's without correction for the influence of substrate.
(§9) The above protocols were used to determine MMP inhibition Ki constants for the compounds in Examples 1, 2, and 4-42 above. All Ki values in Table 3 are given in nM units.

Assay [2] has as its target T2, Human recombinant MMP-2 (Homo sapiens, UniProt P08253).
T2 construct: made in house; host or cells: MMP-2-transfected p2AHT2 cells
T2 sequence (P08253 110-660): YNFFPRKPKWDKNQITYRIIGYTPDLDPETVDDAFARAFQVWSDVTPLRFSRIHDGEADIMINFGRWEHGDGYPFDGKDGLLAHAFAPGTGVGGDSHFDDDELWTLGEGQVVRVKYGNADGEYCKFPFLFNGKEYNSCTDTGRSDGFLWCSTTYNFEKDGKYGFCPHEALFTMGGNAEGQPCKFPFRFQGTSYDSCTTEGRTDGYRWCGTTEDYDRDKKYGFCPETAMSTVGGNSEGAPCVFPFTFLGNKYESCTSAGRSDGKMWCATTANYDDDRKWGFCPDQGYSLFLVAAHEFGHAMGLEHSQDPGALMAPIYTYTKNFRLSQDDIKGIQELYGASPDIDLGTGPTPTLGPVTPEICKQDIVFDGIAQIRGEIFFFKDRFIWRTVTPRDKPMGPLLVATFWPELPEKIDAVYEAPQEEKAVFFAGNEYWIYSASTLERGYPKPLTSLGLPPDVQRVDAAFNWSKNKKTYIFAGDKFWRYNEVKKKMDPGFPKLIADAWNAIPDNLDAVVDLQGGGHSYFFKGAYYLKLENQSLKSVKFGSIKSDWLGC
Briefly: In vitro MMP inhibition analysis (fluorogenic peptide substrate), MMP-2. The note with it: human recombinant enzyme; 4 μM substrate (A); apparent Ki without substrate correction. As to the method: as §1, §2
The MMP-2 proenzyme was purified by gelatin Sepharose chromatography from MMP-2- transfected p2AHT2 cells provided by Dr. Gregory Goldberg of Washington University (St. Louis, Mo.).
as §3, §4, §5, §6, §7, §8, §9

Assay [3] concerns the target T3, Human recombinant MMP-1 (Homo sapiens, UniProt P03956).
T3 construct: made in house; host or cells: MMP-1-transfected HT-1080 cells (spent media)
T3 sequence (P03956 100-469): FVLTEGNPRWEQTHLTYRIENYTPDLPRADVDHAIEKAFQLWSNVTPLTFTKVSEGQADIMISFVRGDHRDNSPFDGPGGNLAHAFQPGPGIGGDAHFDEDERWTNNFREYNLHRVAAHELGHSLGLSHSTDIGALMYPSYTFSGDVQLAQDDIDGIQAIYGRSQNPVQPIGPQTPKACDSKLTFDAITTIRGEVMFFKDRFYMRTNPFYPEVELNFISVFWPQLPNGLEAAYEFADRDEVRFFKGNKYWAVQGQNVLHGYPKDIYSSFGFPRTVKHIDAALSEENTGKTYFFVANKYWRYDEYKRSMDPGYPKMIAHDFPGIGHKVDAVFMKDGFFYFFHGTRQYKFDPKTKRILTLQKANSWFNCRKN
The experiment in a line: In vitro MMP inhibition analysis (fluorogenic peptide substrate), MMP-1. The settings on record: human recombinant enzyme; 4 μM substrate (A); apparent Ki without substrate correction. As to the method: as §1, §2
The MMP-1 proenzyme was purified from the spent media of MMP-1-transfected HT-1080 cells provided by Dr. Harold Welgus of Washington University (St. Louis, Mo.). The protein was purified on a zinc chelating column.
as §3, §4, §5, §6, §7, §8, §9

Where only a bound is given, the exact number is not on record here.

Turning to `CCCCCc1ccc(-c2ccc(S(=O)(=O)C3(C(=O)NO)CCOCC3)cn2)cc1` [Example 45], the values for the Ki in assay [1], in assay [2] and in assay [3] were 3490 nM, 2.08 nM and more than 10000 nM, respectively.

Consider `O=C(NO)C1(S(=O)(=O)c2ccc3nc(-c4ccc(SC(F)(F)F)cc4)sc3c2)CCOCC1` [Example 67], for which the Ki in assay [1] is 3600 nM; in assay [2], 2.76 nM; in assay [3] it was more than 10000 nM.

On to `CCCCN(C)C(=O)Cc1ccc(-c2ccc(S(=O)(=O)C3(C(=O)NO)CCOCC3)cn2)cc1` [Example 74], for which the Ki was more than 10000 nM in assay [1], 387 nM in assay [2] and more than 10000 nM in assay [3].

`CCCCc1ccc(C(=O)C2CCN(c3ccc(S(=O)(=O)C4(C(=O)NO)CCOCC4)cn3)CC2)s1` [Example 70]: the Ki was more than 10000 nM in assay [1], 1840 nM in assay [2] and more than 10000 nM in assay [3].

Consider `O=C(NO)C1(S(=O)(=O)c2ccc(-c3ccc(CCC(F)(F)C(F)(F)F)cn3)s2)CCOCC1` [Example 49], for which the figures for the Ki in assay [1], in assay [2] and in assay [3] were 9250 nM, 3.14 nM and more than 10000 nM, respectively.

As to `O=C(NO)C1(S(=O)(=O)c2ccc3nc(-c4cccc(C(F)(F)F)c4)sc3c2)CCOCC1` [Example 55], the Ki in assay [1] was more than 10000 nM; in assay [2] it was 621 nM; in assay [3] it was more than 10000 nM.

With `CCCCNC(=O)c1ccc(-c2ccc(S(=O)(=O)C3(C(=O)NO)CCOCC3)cn2)cc1` [Example 76], the Ki in assay [1] was more than 10000 nM; in assay [2], 26.3 nM; in assay [3], 4200 nM.

As to `O=C(NO)C1(S(=O)(=O)c2ccc(-c3ccc(OC(F)(F)C(F)F)cc3)s2)CCOCC1` [Example 44], the Ki is 429 nM in assay [1], 0.173 nM in assay [2] and 1120 nM in assay [3].

As for `CCCCOc1ccc(-c2ccc(S(=O)(=O)C3(C(=O)NO)CCOCC3)s2)cc1` [Example 43], the figures for the Ki in assay [1], in assay [2] and in assay [3] were 466 nM, 0.483 nM and more than 1250 nM, respectively.

As for `CC(C)Cc1ncc(-c2nc3ccc(S(=O)(=O)C4(C(=O)NO)CCOCC4)cc3s2)s1` [Example 54], the Ki in assay [1] is more than 10000 nM; in assay [2] it was 35.4 nM; in assay [3], more than 10000 nM.

Regarding `O=C(NO)C1(S(=O)(=O)c2ccc3nc(-c4ccc(C(F)(F)F)cc4)sc3c2)CCOCC1` [Example 57], the Ki in assay [1] was 2160 nM; in assay [2], 1.86 nM; in assay [3] it was more than 10000 nM.

For the compound `O=C(NO)C1(S(=O)(=O)c2ccc3nc(N4CCC(Oc5ccc(OC(F)(F)F)cc5)CC4)sc3c2)CCOCC1` [Example 56], the Ki in assay [1] was 798 nM; in assay [2], 40.3 nM; in assay [3], more than 10000 nM.

Regarding `O=C(NO)C1(S(=O)(=O)c2ccc3nc(-c4ccc5c(c4)OCO5)sc3c2)CCOCC1` [Example 65], the results for the Ki in assay [1], in assay [2] and in assay [3] were 686 nM, 4.43 nM and more than 1250 nM, respectively.

In the case of `CN(C(=O)Cc1ccc(-c2ccc(S(=O)(=O)C3(C(=O)NO)CCOCC3)cn2)cc1)c1ccc(OC(F)(F)F)cc1` [Example 75], the Ki in assay [1] was more than 10000 nM; in assay [2], 0.218 nM; in assay [3], more than 10000 nM.

For `CCN(CC)C(=O)c1ccc(-c2ccc(S(=O)(=O)C3(C(=O)NO)CCOCC3)cn2)cc1` [Example 79], the Ki is more than 10000 nM in assay [1], 8200 nM in assay [2] and more than 10000 nM in assay [3].
